Consider 42 targets from the supplement of paper PMC12463676, “Small-molecule dissolution of stress granules by redox modulation benefits ALS models” (Nature Chemical Biology, 2025).

Compound in experiment [1]: NC(=O)CCCCC1CCSS1 [lipoamide]
The experiment in a line: thermal stability z-score vs DMSO; higher = more thermally stabilized by treatment. Conditions: HeLa, lipoamide concentration 100 µM. As to the method: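 Cellular thermal proteome profiling in HeLa cells. Cells were treated with 100 µM lipoamide for 1 h, with or without 1 mM arsenate for a further 1 h, then heated to ten temperatures (37-66.3 °C), and soluble protein was quantified by TMT mass spectrometry relative to 0.1% DMSO controls. The thermal stability score (sum of log2 fold changes minus the abundance score) was transformed to a z-score; mean of n = 3 experiments.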

Compound in experiment [2]: O=[As]([O-])(O)O.[K+] [potassium arsenate]
The description is as above. Conditions: HeLa; arsenate concentration 1 mM. As to the method: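 Cellular thermal proteome profiling in HeLa cells treated with 1 mM arsenate for 1 h (DMSO pretreatment), heated to ten temperatures (37-66.3 °C). Soluble protein was quantified by TMT mass spectrometry relative to DMSO controls; the thermal stability score was transformed to a z-score; mean of n = 3 experiments.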

Setting [3] is: arsenate co-treatment: 1 mM arsenate 1 h.
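Note: each temperature applied for 3 min, abundance score taken as mean log2 fold change at the two lowest temperatures, z-score obtained by mean subtraction and division by SD.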

Sequence of UniProt Q14244 (Q14244 whole entry): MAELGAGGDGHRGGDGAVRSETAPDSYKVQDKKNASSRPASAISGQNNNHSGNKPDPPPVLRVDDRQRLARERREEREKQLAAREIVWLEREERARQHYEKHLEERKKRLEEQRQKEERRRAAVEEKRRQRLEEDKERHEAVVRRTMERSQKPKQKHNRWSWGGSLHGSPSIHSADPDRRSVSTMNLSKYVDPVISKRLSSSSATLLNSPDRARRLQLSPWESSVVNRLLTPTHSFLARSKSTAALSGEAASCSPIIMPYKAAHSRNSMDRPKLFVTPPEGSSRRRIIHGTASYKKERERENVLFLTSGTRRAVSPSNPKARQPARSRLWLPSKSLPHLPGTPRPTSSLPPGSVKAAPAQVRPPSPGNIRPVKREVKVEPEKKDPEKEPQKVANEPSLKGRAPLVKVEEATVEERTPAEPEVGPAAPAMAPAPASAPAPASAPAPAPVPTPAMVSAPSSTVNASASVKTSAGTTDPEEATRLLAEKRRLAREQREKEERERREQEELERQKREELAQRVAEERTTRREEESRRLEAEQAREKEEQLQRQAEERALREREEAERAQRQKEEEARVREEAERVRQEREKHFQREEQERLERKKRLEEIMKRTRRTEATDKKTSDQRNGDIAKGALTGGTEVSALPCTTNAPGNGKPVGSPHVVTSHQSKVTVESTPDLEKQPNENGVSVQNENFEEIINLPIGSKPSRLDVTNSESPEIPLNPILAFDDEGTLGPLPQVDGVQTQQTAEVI
Sequence of UniProt Q8IVT2 (Q8IVT2 whole entry): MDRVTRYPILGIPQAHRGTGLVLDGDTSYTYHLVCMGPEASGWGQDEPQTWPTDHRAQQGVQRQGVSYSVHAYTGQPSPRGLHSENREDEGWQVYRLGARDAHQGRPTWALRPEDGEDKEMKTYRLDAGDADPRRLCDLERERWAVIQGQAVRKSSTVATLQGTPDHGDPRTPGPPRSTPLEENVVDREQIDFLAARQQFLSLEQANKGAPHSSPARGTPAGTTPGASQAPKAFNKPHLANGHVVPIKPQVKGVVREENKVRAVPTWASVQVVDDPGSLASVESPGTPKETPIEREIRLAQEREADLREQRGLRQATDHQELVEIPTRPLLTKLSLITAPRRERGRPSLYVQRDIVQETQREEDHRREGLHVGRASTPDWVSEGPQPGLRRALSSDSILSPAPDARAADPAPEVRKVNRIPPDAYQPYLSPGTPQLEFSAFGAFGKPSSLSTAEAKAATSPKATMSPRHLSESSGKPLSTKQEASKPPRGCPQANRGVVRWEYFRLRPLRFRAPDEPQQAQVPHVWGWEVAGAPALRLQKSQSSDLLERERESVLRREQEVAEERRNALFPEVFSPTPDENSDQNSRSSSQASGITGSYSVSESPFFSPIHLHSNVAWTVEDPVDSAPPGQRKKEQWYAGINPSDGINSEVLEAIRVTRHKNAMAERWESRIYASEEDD
Sequence of UniProt O15260 (O15260 whole entry): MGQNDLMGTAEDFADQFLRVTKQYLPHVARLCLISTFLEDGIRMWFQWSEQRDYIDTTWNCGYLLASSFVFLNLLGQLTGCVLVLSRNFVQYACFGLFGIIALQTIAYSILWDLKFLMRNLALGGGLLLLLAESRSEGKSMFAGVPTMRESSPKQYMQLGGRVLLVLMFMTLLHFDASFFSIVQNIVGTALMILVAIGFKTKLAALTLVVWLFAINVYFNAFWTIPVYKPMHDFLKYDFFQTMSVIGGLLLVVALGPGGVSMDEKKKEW
Sequence of UniProt P60903 (P60903 whole entry): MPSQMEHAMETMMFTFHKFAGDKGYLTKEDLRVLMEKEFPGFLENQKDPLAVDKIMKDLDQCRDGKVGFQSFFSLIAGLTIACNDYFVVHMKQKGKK
Sequence of UniProt Q93009 (Q93009 whole entry, looked up): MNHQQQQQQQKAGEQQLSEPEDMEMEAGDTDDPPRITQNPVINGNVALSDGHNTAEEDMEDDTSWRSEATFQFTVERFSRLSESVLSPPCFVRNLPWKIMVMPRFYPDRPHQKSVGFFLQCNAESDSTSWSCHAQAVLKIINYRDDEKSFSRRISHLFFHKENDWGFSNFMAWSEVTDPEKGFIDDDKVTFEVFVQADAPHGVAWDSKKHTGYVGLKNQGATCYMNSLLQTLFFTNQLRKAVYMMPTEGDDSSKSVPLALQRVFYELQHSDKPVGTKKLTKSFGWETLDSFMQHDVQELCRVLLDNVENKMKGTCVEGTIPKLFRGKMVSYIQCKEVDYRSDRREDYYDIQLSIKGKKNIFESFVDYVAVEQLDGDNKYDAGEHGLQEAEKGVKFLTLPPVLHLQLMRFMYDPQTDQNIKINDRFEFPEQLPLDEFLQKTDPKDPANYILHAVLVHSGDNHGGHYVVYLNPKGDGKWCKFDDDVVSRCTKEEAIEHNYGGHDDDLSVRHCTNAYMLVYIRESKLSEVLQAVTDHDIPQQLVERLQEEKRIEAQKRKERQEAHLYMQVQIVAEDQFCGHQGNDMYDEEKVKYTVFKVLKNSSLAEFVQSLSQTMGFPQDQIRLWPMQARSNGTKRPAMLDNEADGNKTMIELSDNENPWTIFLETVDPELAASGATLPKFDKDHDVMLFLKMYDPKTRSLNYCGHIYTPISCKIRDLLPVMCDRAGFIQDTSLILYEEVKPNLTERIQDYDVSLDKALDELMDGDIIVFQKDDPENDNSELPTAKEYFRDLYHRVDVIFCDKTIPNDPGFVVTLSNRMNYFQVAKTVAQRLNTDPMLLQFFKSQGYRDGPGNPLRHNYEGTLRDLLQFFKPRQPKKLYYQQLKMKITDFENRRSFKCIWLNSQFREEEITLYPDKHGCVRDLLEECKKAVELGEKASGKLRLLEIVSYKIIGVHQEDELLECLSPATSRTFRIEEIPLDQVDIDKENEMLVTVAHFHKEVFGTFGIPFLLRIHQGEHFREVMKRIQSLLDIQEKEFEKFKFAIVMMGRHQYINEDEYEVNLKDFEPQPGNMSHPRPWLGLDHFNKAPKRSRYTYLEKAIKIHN
Sequence of UniProt O94985 (O94985 whole entry): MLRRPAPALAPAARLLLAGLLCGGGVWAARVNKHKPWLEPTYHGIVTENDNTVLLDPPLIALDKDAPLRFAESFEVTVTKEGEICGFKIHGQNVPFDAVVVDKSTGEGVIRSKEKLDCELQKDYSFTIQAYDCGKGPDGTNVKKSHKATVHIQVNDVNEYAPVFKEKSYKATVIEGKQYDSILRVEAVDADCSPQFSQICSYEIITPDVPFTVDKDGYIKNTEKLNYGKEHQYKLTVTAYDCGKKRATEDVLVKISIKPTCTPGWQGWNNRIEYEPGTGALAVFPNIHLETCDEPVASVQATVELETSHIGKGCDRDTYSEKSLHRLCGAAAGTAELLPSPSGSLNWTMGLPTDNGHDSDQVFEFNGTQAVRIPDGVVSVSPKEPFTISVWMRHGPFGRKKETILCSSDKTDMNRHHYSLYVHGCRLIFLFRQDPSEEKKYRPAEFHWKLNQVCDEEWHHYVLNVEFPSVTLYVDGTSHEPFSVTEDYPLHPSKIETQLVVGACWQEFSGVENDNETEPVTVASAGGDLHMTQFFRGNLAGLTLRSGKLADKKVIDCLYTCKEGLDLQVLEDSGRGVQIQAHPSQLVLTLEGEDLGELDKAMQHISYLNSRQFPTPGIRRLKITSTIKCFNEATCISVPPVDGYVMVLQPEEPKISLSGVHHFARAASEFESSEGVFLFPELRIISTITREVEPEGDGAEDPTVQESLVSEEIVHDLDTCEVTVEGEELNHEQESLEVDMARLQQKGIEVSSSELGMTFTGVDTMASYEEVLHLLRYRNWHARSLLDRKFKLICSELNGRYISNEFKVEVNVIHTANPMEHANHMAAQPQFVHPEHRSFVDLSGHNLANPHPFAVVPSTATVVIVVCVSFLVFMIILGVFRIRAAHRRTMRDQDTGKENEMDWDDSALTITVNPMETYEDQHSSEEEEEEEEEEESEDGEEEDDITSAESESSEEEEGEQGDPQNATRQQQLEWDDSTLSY
Sequence of UniProt Q8TF05 (Q8TF05 whole entry): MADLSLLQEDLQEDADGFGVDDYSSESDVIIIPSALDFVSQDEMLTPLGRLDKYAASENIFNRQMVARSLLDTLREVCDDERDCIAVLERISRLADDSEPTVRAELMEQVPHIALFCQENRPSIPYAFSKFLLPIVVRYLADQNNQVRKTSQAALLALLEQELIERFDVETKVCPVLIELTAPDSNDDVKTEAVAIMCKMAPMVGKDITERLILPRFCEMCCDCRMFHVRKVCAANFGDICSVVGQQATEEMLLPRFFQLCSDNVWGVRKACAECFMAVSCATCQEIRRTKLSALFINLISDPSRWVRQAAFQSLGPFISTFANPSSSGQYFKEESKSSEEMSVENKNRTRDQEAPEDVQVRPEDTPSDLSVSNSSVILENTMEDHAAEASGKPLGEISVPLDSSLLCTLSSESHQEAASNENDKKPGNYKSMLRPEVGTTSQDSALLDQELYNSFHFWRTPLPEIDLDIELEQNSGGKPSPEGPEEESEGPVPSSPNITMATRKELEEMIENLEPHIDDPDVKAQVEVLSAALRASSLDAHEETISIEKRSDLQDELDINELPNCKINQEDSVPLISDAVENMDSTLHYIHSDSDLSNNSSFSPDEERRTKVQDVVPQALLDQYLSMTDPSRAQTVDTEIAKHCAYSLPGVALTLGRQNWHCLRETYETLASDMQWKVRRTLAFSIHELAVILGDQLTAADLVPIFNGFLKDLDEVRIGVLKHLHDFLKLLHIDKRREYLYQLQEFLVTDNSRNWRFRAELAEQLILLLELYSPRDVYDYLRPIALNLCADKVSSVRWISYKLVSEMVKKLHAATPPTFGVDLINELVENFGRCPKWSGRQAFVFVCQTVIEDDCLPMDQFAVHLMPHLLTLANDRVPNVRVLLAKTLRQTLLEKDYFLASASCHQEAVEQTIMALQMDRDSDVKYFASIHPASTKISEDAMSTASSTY
Sequence of UniProt Q9NUP1 (Q9NUP1 whole entry): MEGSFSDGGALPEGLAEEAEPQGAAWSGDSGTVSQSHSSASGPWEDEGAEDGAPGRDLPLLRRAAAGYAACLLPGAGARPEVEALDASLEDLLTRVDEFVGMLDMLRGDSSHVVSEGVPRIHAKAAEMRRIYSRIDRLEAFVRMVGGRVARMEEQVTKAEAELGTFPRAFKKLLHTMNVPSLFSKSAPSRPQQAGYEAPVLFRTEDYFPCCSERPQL

Turning to ITPR2 (UniProt Q14571), the values for the thermal stability z-score in experiment [1] (setting [3]), in experiment [1] (arsenate co-treatment: none) and in experiment [2] were -0.269, -0.265 and -0.238, respectively.

As to MYDGF (UniProt Q969H8), the thermal stability z-score was -1.32 in experiment [1] (setting [3]), -1.06 in experiment [1] (arsenate co-treatment: none) and -0.0349 in experiment [2].

For NCAPG (UniProt Q9BPX3), the thermal stability z-score in experiment [1] (setting [3]) is -0.382; in experiment [1] (arsenate co-treatment: none), 0.295; in experiment [2], 0.883.

For SPG7 (UniProt Q9UQ90), the figures for the thermal stability z-score in experiment [1] (setting [3]), in experiment [1] (arsenate co-treatment: none) and in experiment [2] were -0.126, -0.0687 and 0.156, respectively.

Consider SLC38A1 (UniProt Q9H2H9), for which the figures for the thermal stability z-score in experiment [1] (setting [3]), in experiment [1] (arsenate co-treatment: none) and in experiment [2] were 0.457, 0.549 and 1.25, respectively.

Turning to PPP4R1 (UniProt Q8TF05), the values for the thermal stability z-score in experiment [1] (setting [3]), in experiment [1] (arsenate co-treatment: none) and in experiment [2] were 0.26, 0.0864 and 0.0118, respectively.

As to VPS13A (UniProt Q96RL7), the thermal stability z-score was found to be 1.04 in experiment [1] (setting [3]), 0.949 in experiment [1] (arsenate co-treatment: none) and 0.945 in experiment [2].

Turning to CCNB2 (UniProt O95067), the thermal stability z-score is 0.346 in experiment [1] (setting [3]), -0.108 in experiment [1] (arsenate co-treatment: none) and 0.36 in experiment [2].

As to GINS1 (UniProt Q14691), the thermal stability z-score in experiment [1] (setting [3]) was -0.512; in experiment [1] (arsenate co-treatment: none), -0.399; in experiment [2], -0.404.

Regarding DYNLT3 (UniProt P51808), the thermal stability z-score in experiment [1] (setting [3]) was 0.487; in experiment [1] (arsenate co-treatment: none), -0.208; in experiment [2], -0.596.

MED1 (UniProt Q15648): the results for the thermal stability z-score in experiment [1] (setting [3]), in experiment [1] (arsenate co-treatment: none) and in experiment [2] were 0.948, 0.662 and 0.125, respectively.

In the case of PRC1 (UniProt O43663), the thermal stability z-score in experiment [1] (setting [3]) is -0.144; in experiment [1] (arsenate co-treatment: none), -0.106; in experiment [2] it was -0.601.

For the target ALKBH2 (UniProt Q6NS38), the results for the thermal stability z-score in experiment [1] (setting [3]), in experiment [1] (arsenate co-treatment: none) and in experiment [2] were 0.407, 0.149 and 1.45, respectively.

Regarding BLOC1S4 (UniProt Q9NUP1), the thermal stability z-score in experiment [1] (setting [3]) is 1.47; in experiment [1] (arsenate co-treatment: none), 0.395; in experiment [2], 0.401.

On to TCF12 (UniProt Q99081), for which the thermal stability z-score in experiment [1] (setting [3]) was -0.124; in experiment [1] (arsenate co-treatment: none), -0.0813; in experiment [2] it was -0.203.

Consider HELZ2 (UniProt Q9BYK8), for which the thermal stability z-score in experiment [1] (setting [3]) is -0.0529; in experiment [1] (arsenate co-treatment: none), -0.115; in experiment [2] it was -0.0872.

For the target LAMTOR5 (UniProt O43504), the thermal stability z-score in experiment [1] (setting [3]) is -0.306; in experiment [1] (arsenate co-treatment: none) it was -0.405; in experiment [2], 0.0111.

As to SURF4 (UniProt O15260), the thermal stability z-score is -0.416 in experiment [1] (setting [3]), -0.214 in experiment [1] (arsenate co-treatment: none) and -0.243 in experiment [2].

Take FBL (UniProt P22087): the thermal stability z-score in experiment [1] (setting [3]) is 0.277; in experiment [1] (arsenate co-treatment: none), -0.112; in experiment [2], 0.723.

Regarding NXF1 (UniProt Q9UBU9), the thermal stability z-score is 0.0906 in experiment [1] (setting [3]), 0.0765 in experiment [1] (arsenate co-treatment: none) and -0.127 in experiment [2].

With MISP (UniProt Q8IVT2), the thermal stability z-score in experiment [1] (setting [3]) was 0.196; in experiment [1] (arsenate co-treatment: none), 0.386; in experiment [2] it was -0.461.

With CLASP1 (UniProt Q7Z460), the thermal stability z-score in experiment [1] (setting [3]) was -0.602; in experiment [1] (arsenate co-treatment: none), -0.311; in experiment [2], -0.0658.

As for UBR3 (UniProt Q6ZT12), the thermal stability z-score in experiment [1] (setting [3]) is 0.0839; in experiment [1] (arsenate co-treatment: none), 0.139; in experiment [2], -0.007.

On to XPOT (UniProt O43592), for which the thermal stability z-score is -0.645 in experiment [1] (setting [3]), -0.112 in experiment [1] (arsenate co-treatment: none) and -0.212 in experiment [2].

As to MTG2 (UniProt Q9H4K7), the thermal stability z-score in experiment [1] (setting [3]) was -0.0209; in experiment [1] (arsenate co-treatment: none) it was 0.00401; in experiment [2], 0.127.

In the case of EWSR1 (UniProt Q01844), the thermal stability z-score in experiment [1] (setting [3]) is 0.0495; in experiment [1] (arsenate co-treatment: none), 0.235; in experiment [2] it was -0.604.

As to USP7 (UniProt Q93009), the results for the thermal stability z-score in experiment [1] (setting [3]), in experiment [1] (arsenate co-treatment: none) and in experiment [2] were 0.299, 0.123 and -0.483, respectively.

For the target PSMD14 (UniProt O00487), the thermal stability z-score in experiment [1] (setting [3]) was 0.501; in experiment [1] (arsenate co-treatment: none) it was 0.524; in experiment [2], -0.0143.

With GLUL (UniProt P15104), the thermal stability z-score in experiment [1] (setting [3]) was 0.732; in experiment [1] (arsenate co-treatment: none) it was 0.282; in experiment [2], -1.16.

Take NDUFB11 (UniProt Q9NX14): the thermal stability z-score in experiment [1] (setting [3]) amounted to 0.566; in experiment [1] (arsenate co-treatment: none), 0.514; in experiment [2] it was 0.94.

Regarding MPHOSPH6 (UniProt Q99547), the thermal stability z-score was 0.29 in experiment [1] (setting [3]), -0.917 in experiment [1] (arsenate co-treatment: none) and -2.13 in experiment [2].

On to OCIAD2 (UniProt Q56VL3), for which the figures for the thermal stability z-score in experiment [1] (setting [3]), in experiment [1] (arsenate co-treatment: none) and in experiment [2] were 0.194, 0.205 and 0.549, respectively.

Regarding TJP2 (UniProt Q9UDY2), the results for the thermal stability z-score in experiment [1] (setting [3]), in experiment [1] (arsenate co-treatment: none) and in experiment [2] were -0.259, -0.231 and 0.438, respectively.

With TOR1A (UniProt O14656), the thermal stability z-score was -3.18 in experiment [1] (setting [3]), -3.08 in experiment [1] (arsenate co-treatment: none) and 0.174 in experiment [2].

With MAP7 (UniProt Q14244), the figures for the thermal stability z-score in experiment [1] (setting [3]), in experiment [1] (arsenate co-treatment: none) and in experiment [2] were 0.478, -0.183 and -0.779, respectively.

With SRSF1 (UniProt Q07955), the thermal stability z-score is 2.02 in experiment [1] (setting [3]), 0.446 in experiment [1] (arsenate co-treatment: none) and -0.17 in experiment [2].

As for UBXN7 (UniProt O94888), the values for the thermal stability z-score in experiment [1] (setting [3]), in experiment [1] (arsenate co-treatment: none) and in experiment [2] were -0.462, 0.55 and -0.679, respectively.

Take DARS2 (UniProt Q6PI48): the thermal stability z-score in experiment [1] (setting [3]) is -0.726; in experiment [1] (arsenate co-treatment: none) it was -0.586; in experiment [2], -1.93.

S100A10 (UniProt P60903): the thermal stability z-score amounted to 1.65 in experiment [1] (setting [3]), 1.54 in experiment [1] (arsenate co-treatment: none) and 0.372 in experiment [2].

As for PAM (UniProt P19021), the thermal stability z-score in experiment [1] (setting [3]) was -1.15; in experiment [1] (arsenate co-treatment: none) it was -1.32; in experiment [2] it was -1.17.

ITPK1 (UniProt Q13572): the values for the thermal stability z-score in experiment [1] (setting [3]), in experiment [1] (arsenate co-treatment: none) and in experiment [2] were -0.0201, 0.179 and -0.31, respectively.

With CLSTN1 (UniProt O94985), the thermal stability z-score was -0.443 in experiment [1] (setting [3]), 0.255 in experiment [1] (arsenate co-treatment: none) and 1.06 in experiment [2].
